Data from a flash point compilation (Sun et al. 2020).
Where a name gives a salt, the structure may show the parent alone.

SMILES | flash point [°C]
C#CCOc1cccc(-c2cc(C(F)(F)F)nc(S(=O)CC)n2)c1 (stereo not drawn) | 240.00
CCO [ethanol] | 13.00
Clc1ccc(Cl)cc1 [1,4-dichlorobenzene] | 66.00
C=C1CC(=O)O1 [4-methylideneoxetan-2-one] | 34.00
Cc1cc(-c2ccc(N)c(C)c2)ccc1N [4-(4-amino-3-methylphenyl)-2-methylaniline] | 244.00
C#CC(C)(C)O [2-methylbut-3-yn-2-ol] | 25.00
CN(C)CCO [2-(dimethylamino)ethanol] | 41.00
C=CCOC(=O)c1ccccc1C(=O)OCC=C [bis(prop-2-enyl) benzene-1,2-dicarboxylate] | 110.00
CCOS(=O)(=O)c1ccc(C)cc1 [ethyl 4-methylbenzenesulfonate] | 158.00
CCCC(=O)OC(=O)CCC [butanoyl butanoate] | 82.00
CCNC1CCCCC1 [N-ethylcyclohexanamine] | 29.00
CN(C)C(=S)[S-].CN(C)C(=S)[S-].[Zn+2] [zinc;N,N-dimethylcarbamodithioate] | 93.00
C[C@@H]1[C@@H](c2ccc(Cl)cc2)SC(=O)N1C(=O)NC1CCCCC1 | 100.00
CCCSSCCC [1-(propyldisulfanyl)propane] | 66.00
C=CC(=O)OCC(C)O (stereo not drawn) [2-hydroxypropyl prop-2-enoate] | 65.00
C1CC2OC2CC1C1CO1 (stereo not drawn) [3-(oxiran-2-yl)-7-oxabicyclo[4.1.0]heptane] | 110.00
CC1CCC(C(C)(C)OO)CC1 (stereo not drawn) [1-(2-hydroperoxypropan-2-yl)-4-methylcyclohexane] | 53.00
CCC(C)Nc1ccc(NC(C)CC)cc1 (stereo not drawn) [1-N,4-N-di(butan-2-yl)benzene-1,4-diamine] | 141.00
Clc1c(Cl)c(Cl)c(Cl)c(Cl)c1Cl [1,2,3,4,5,6-hexachlorobenzene] | 242.00
O=C1OC(=O)c2c(Cl)c(Cl)c(Cl)c(Cl)c21 [4,5,6,7-tetrachloro-2-benzofuran-1,3-dione] | 362.00
Cc1cccc(CBr)c1 [1-(bromomethyl)-3-methylbenzene] | 82.00
CC(C)OC(C)C(Cl)Cl (stereo not drawn) [1,1-dichloro-2-propan-2-yloxypropane] | 85.00
c1ccncc1 [pyridine] | 20.00

SMILES | flash point [°C]
CC(C)CCCCCCCOP(=S)([S-])OCCCCCCCC(C)C.CC(C)CCCCCCCOP(=S)([S-])OCCCCCCCC(C)C.[Zn+2] | 280.00
Cc1cnc[nH]1 [5-methyl-1H-imidazole] | 157.00
CN=C=O [methylimino(oxo)methane] | -7.00
N#CC(Cl)(Cl)Cl [2,2,2-trichloroacetonitrile] | 74.00
CCSCc1ccccc1OC(=O)NC [[2-(ethylsulfanylmethyl)phenyl] N-methylcarbamate] | 123.00
CCOC(=O)CBr [ethyl 2-bromoacetate] | 48.00
CCCCC(CC)COC(=O)c1ccccc1C(=O)OCC(CC)CCCC (stereo not drawn) [bis(2-ethylhexyl) benzene-1,2-dicarboxylate] | 207.00
CCCO [propan-1-ol] | 25.00
ClC=C(Cl)CCl [1,2,3-trichloroprop-1-ene] | 85.00
CC(N)Cc1ccccc1 (stereo not drawn) [1-phenylpropan-2-amine] | 27.00
CC(C)c1ccc(NC(=O)N(C)C)cc1 [1,1-dimethyl-3-(4-propan-2-ylphenyl)urea] | 100.00
C1=Cc2cccc3cccc1c23 [acenaphthylene] | 122.00
CC(=O)O [acetic acid] | 40.00
CC[N+](=O)[O-] [1-nitroethane] | 41.00
CNC(=O)CSP(=S)(OC)OC [2-dimethoxyphosphinothioylsulfanyl-N-methylacetamide] | 51.00
O=C/C=C/c1ccccc1 [(E)-3-phenylprop-2-enal] | 71.00
COc1ccccc1N [2-methoxyaniline] | 99.00
CN(C)c1ccc(N)cc1 [4-N,4-N-dimethylbenzene-1,4-diamine] | 91.00
CC(=O)C(C)(C)C [3,3-dimethylbutan-2-one] | 5.00
CN(C)CCN(C)C [N,N,N',N'-tetramethylethane-1,2-diamine] | 10.00
CC(C)(C)OO [2-hydroperoxy-2-methylpropane] | 27.00
CCCCN(C)N=O [N-butyl-N-methylnitrous amide] | 32.00

The next lines start with the values.

flash point [°C] | SMILES
172.00 | CCC(CO)(CO)CO [2-ethyl-2-(hydroxymethyl)propane-1,3-diol]
77.00 | CCN(CC)C(C)=O [N,N-diethylacetamide]
59.00 | SCCCS [propane-1,3-dithiol]
171.00 | CC(=O)CC(=O)Nc1ccc(C)cc1C [N-(2,4-dimethylphenyl)-3-oxobutanamide]
4.00 | [C-]1=CC=CC1.[C-]1=CC=CC1.[Ni+2] [cyclopenta-1,3-diene;nickel(2+)]
73.00 | CCOC(=O)NC [ethyl N-methylcarbamate]
177.00 | CCCCCCCC(=O)OCC(COC(=O)CCCCCCC)OC(=O)CCCCCCC [2,3-di(octanoyloxy)propyl octanoate]
25.00 | C1=CCC=C1 [InChI=1S/C5H6/c1-2-4-5-3-1/h1-4H,5H2]
121.00 | O=C(O)c1ccccc1 [benzoic acid]
2.00 | C=C(C)CC(C)(C)C [2,4,4-trimethylpent-1-ene]
-9.00 | CCC=O [propanal]
35.00 | CCC1CCCCC1 [ethylcyclohexane]
113.00 | CC(C)C(O)C(C)(C)CO (stereo not drawn) [2,2,4-trimethylpentane-1,3-diol]
40.00 | CC1CCC2CC1C2(C)C (stereo not drawn) [2,6,6-trimethylbicyclo[3.1.1]heptane]
59.00 | C=Cc1ccccc1Cl [1-chloro-2-ethenylbenzene]
86.00 | CC(=O)OCC(C)OC(C)=O (stereo not drawn) [2-acetyloxypropyl acetate]
110.00 | CCOCCOCCOC(C)=O [2-(2-ethoxyethoxy)ethyl acetate]
22.00 | CC[Si](Cl)(Cl)Cl [trichloro(ethyl)silane]
56.00 | c1ccc2occc2c1 [1-benzofuran]
102.00 | NCCNCCN [N'-(2-aminoethyl)ethane-1,2-diamine]
53.00 | CCOCC(C)OC(C)=O (stereo not drawn) [1-ethoxypropan-2-yl acetate]
-18.00 | CC1OC1C (stereo not drawn) [2,3-dimethyloxirane]
-4.00 | CC1CCCCC1 [methylcyclohexane]
100.00 | Cc1ccc(C(C)C)cc1O [2-methyl-5-propan-2-ylphenol]
115.00 | C=CC(=O)OCC(C)(C)COC(=O)C=C [(2,2-dimethyl-3-prop-2-enoyloxypropyl) prop-2-enoate]
163.00 | CC(=O)CC(=O)Nc1ccccc1 [3-oxo-N-phenylbutanamide]
95.00 | CN1CCC[C@H]1c1cccnc1 [3-[(2S)-1-methylpyrrolidin-2-yl]pyridine]

flash point [°C] | SMILES
51.00 | CC(C)CN(CC(C)C)CC(C)C [2-methyl-N,N-bis(2-methylpropyl)propan-1-amine]
77.00 | CCCC[O-].CCCC[O-].CCCC[O-].CCCC[O-].[Ti+4] [butan-1-olate;titanium(4+)]
22.00 | CCCCC(=O)OC [methyl pentanoate]
100.00 | Oc1c(Cl)cc(Cl)c(Cl)c1Cl [2,3,4,6-tetrachlorophenol]
-60.00 | CCCC [butane]
93.00 | O=COCCOC=O [2-formyloxyethyl formate]
260.00 | O=C(O)c1ccc(C(=O)O)cc1 [terephthalic acid]
74.00 | C=C(C)C(=O)OCCN(C)C [2-(dimethylamino)ethyl 2-methylprop-2-enoate]
67.00 | ClC(Cl)(Cl)C1CO1 (stereo not drawn) [2-(trichloromethyl)oxirane]
2.00 | CC(=O)OC(C)C [propan-2-yl acetate]
-34.00 | C1=CCCC1 [cyclopentene]
51.00 | OC1CCCC1 [cyclopentanol]
107.00 | CC(C)=CCC/C(C)=C\CO [(2Z)-3,7-dimethylocta-2,6-dien-1-ol]
46.00 | CCCCCCCCCC [decane]
-28.00 | CC(C)OC(C)C [2-propan-2-yloxypropane]
79.00 | CC(C=O)=Cc1ccccc1 [2-methyl-3-phenylprop-2-enal]
178.00 | CCCCCCCCCCCCN [dodecan-1-amine]
166.00 | OCCOCCOCCO [2-[2-(2-hydroxyethoxy)ethoxy]ethanol]
76.00 | NCc1ccccc1 [phenylmethanamine]
110.00 | C=CCCCCCCCCCCCC [tetradec-1-ene]
99.00 | CC(=O)OCN=[N+](C)[O-] [acetyloxymethylimino-methyl-oxidoazanium]
46.00 | CCCCC(=O)CC [heptan-3-one]
110.00 | Cc1ccc2cccnc2c1 [7-methylquinoline]
79.00 | C=C(C#N)C(=O)OC [methyl 2-cyanoprop-2-enoate]
200.00 | S=c1[nH]c2ccccc2s1 [3H-1,3-benzothiazole-2-thione]
160.00 | CCCCCCCCCCCCCCCCCC(=O)OCCCC [butyl octadecanoate]
